Measured values reported in patent US7301020B2, “Macrolide analogs and methods for identifying same” (priority 2003, dated 2007).

Target: T1, G-actin (Oryctolagus cuniculus, UniProt P68135)
T1 construct: F-actin is purified from rabbit skeletal muscle using a standard protocol; from tissue; host or cells: rabbit skeletal muscle
Test: Prodan-actin polymerization assay
Type: biochemical, rabbit
Settings: stoichiometric binding conditions
Description: FIG. 5: Time course for G-actin polymerization. Prodan-labeled G-actin is mixed to a final concentration of 5 μM with a pre-formed complex of G-actin-KBC at the following concentrations: a: 0 nM; b: 1 nM; c: 5 nM; d: 10 nM; e: 20 nM; f: 50 nM; g: 250 nM) and the polymerization reaction initiated by the addition of KCl and MgCl2 to 0.1 M and 2 mM respectively at 20°. Excitation at 385 nm and Emission at 465 nm.
Prodan-Actin Polymerization assay The fluorescence emission spectrum of a 5 μM solution of Prodan-labeled G-actin is recorded in G-buffer. Polymerization is initiated by adding KCl and MgCl2 to 100 mM and 2 mM respectively and the time course of the reaction is monitored continuously over a 60-minute period time by recording the emission intensity at 465 nm. In other experiments the progress of actin polymerization is determined by recording the Prodan-actin emission spectrum at defined times during the reaction.
The G-actin-KabC complex inhibits actin polymerization by capping the (+)-end of the filament. […] Adding KCl and MgCl2 to 100 mM and 2 mM respectively polymerizes this G-actin mixture and the progress of the reaction is monitored by the increase in Prodan-actin fluorescence at 465 nm (FIG. 5; Marriott et al, 1988). […]

## Kabiramide C [KabC]
  actin monomer sequestering: sequester actin monomers and raise the critical concentration for actin polymerization
